The text below walks through data of US20090215778A1, “Alpha-substituted Arylmethyl Piperazine Pyrazolo [1,5-alpha]Pyrimidine Amide Derivatives” (priority 2007, published 2009).

The subject of one assay is HIV-1, NL4-3 strain. As to the kind of experiment: Virus infection assay (virus entry and single-cycle infection). Format: cell-based. The following applies: Human immunodeficiency virus 1, NL43, TZM-b1, read-out: Nl4. The essentials:
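TZM-b1 cells (CD4, CXCR4, CCR5; LTR-driven lacZ/luciferase reporters) were infected with HIV-1 NL4-3 (MOI 0.01) with 80 μg/mL DEAE-dextran in the presence of test compound, 4 h at 37 °C before adding complete medium. Infection was quantified one day post-infection as chemiluminescent β-galactosidase signal.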

Assay [1] concerns the target T1, HIV Env six-helix bundle (6HB) structure (Human immunodeficiency virus type 1 group M subtype B, UniProt P04579).
T1 construct: H9 cells chronically infected with HIV-1 (H9/HIV-1RF); endogenous in cells; host or cells: H9 cells chronically infected with HIV-1 strain RF (Env is made from the virus in the infected cells, not by transfection)
As to the kind of experiment: Six-helix bundle (6HB) assay. The assay is classed as cell-based, HIV-1 (strain RF). The essentials: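 Chronically HIV-1 RF-infected H9 cells (12-40 days post-infection), 2.5×10^5 per well, were preincubated with compound for 30 min at 37 °C. sCD4 at 1 μg/mL was added for 1 h to trigger Env changes. 6HB-specific rabbit serum (1 h, 37 °C) was then added, followed by PE anti-rabbit (45 min, 4 °C), with flow cytometric fluorescence read-out.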

T1 sequence (P04579 32-519): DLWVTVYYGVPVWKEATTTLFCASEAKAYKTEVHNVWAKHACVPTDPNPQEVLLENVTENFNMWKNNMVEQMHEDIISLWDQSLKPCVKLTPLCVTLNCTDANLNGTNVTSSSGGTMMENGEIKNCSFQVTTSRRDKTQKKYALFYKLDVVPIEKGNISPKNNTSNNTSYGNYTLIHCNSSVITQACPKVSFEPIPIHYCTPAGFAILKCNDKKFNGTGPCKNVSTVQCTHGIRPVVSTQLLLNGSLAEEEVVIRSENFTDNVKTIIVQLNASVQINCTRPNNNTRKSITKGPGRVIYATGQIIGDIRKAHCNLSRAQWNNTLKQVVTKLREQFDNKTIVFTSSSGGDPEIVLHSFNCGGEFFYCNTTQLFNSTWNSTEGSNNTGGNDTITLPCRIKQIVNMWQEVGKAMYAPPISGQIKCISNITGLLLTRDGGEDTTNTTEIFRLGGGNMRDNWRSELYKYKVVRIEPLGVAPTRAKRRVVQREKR
T1 sequence (P04579 520-865): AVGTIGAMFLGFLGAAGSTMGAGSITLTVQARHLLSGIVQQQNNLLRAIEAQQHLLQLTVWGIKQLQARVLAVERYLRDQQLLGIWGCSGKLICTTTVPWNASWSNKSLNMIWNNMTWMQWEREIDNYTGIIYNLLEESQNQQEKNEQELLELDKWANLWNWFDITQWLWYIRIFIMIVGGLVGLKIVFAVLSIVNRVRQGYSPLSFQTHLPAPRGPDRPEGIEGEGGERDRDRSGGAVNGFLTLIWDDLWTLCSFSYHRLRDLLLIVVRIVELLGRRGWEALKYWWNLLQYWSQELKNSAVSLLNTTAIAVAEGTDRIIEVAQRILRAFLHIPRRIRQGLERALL

Consider `COc1ccc(-c2nc3c(C(=O)N4CCN([C@H](C)c5ccccc5)C[C@H]4C)cnn3c(C(F)(F)F)c2C)cc1` [methanone, [5-(4-methoxyphenyl)-6-methyl-7-(trifluoromethyl)pyrazolo[1,5-α]pyrimidin-3-yl][(2R)-2-methyl-4-[(1R)-1-phenylethyl]-1-piperazinyl]-], for which the IC50 in the assay on HIV-1, NL4-3 strain was less than 1000 nM; in assay [1], less than 1000 nM.
Regarding `COc1ccc(-c2nc3c(C(=O)N4CCN([C@H](c5ccccc5)C(F)(F)F)C[C@H]4C)cnn3c(C(F)(F)F)c2C)cc1` [methanone, [5-(4-methoxyphenyl)-6-methyl-7-(trifluoromethyl)pyrazolo[1,5-α]pyrimidin-3-yl][(2R)-2-methyl-4-[(1R)-2,2,2-trifluoro-1-phenylethyl]-1-piperazinyl]-], the IC50 is less than 1000 nM in the assay on HIV-1, NL4-3 strain and less than 1000 nM in assay [1].
For the molecule `COc1ccc(-c2nc3c(C(=O)N4CCN([C@@H](C)c5ccn(C)n5)C[C@H]4C)cnn3c(C(F)(F)F)c2C)cc1` [methanone, [5-(4-methoxyphenyl)-6-methyl-7-(trifluoromethyl)pyrazolo[1,5-α]pyrimidin-3-yl][(2R)-2-methyl-4-[(1S)-1-(1-methyl-1H-pyrazol-3-yl)ethyl]-1-piperazinyl]-], the IC50 with HIV-1, NL4-3 strain was less than 1000 nM; in assay [1], 1100 to 10000 nM.
For the molecule `COc1ccc(-c2nc3c(C(=O)N4CCN([C@@H](C)c5cc(F)cc(F)c5F)C[C@H]4C)cnn3c(C(F)(F)F)c2C)cc1` [methanone, [5-(4-methoxyphenyl)-6-methyl-7-(trifluoromethyl)pyrazolo[1,5-α]pyrimidin-3-yl][(2R)-2-methyl-4-[(1S)-1-(2,3,5-trifluorophenyl)ethyl]-1-piperazinyl]-], the IC50 with HIV-1, NL4-3 strain is less than 1000 nM; in assay [1] it was less than 1000 nM.
With `COc1ccc(-c2nc3c(C(=O)N4CCN([C@@H](C)c5ccccn5)C[C@H]4C)cnn3c(C(F)(F)F)c2C)cc1` [methanone, [5-(4-methoxyphenyl)-6-methyl-7-(trifluoromethyl)pyrazolo[1,5-α]pyrimidin-3-yl][(2R)-2-methyl-4-[(1S)-1-(2-pyridinyl)ethyl]-1-piperazinyl]-], the IC50 was less than 1000 nM in the assay on HIV-1, NL4-3 strain and less than 1000 nM in assay [1].
For `COc1ccc(-c2nc3c(C(=O)N4CCN([C@@H](C)c5nccs5)C[C@H]4C)cnn3c(C(F)(F)F)c2C)cc1` [methanone, [5-(4-methoxyphenyl)-6-methyl-7-(trifluoromethyl)pyrazolo[1,5-α]pyrimidin-3-yl][(2R)-2-methyl-4-[(1S)-1-(2-thiazolyl)ethyl]-1-piperazinyl]-], the IC50 is less than 1000 nM in the assay on HIV-1, NL4-3 strain and less than 1000 nM in assay [1].
Regarding `COc1ccc(-c2nc3c(C(=O)N4CCN([C@@H](C)c5cccs5)C[C@H]4C)cnn3c(C(F)(F)F)c2C)cc1` [methanone, [5-(4-methoxyphenyl)-6-methyl-7-(trifluoromethyl)pyrazolo[1,5-α]pyrimidin-3-yl][(2R)-2-methyl-4-[(1S)-1-(2-thienyl)ethyl]-1-piperazinyl]-], the IC50 was less than 1000 nM in the assay with HIV-1, NL4-3 strain and less than 1000 nM in assay [1].
As to `COc1ccc(-c2nc3c(C(=O)N4CCN([C@@H](C)c5cc(F)c(F)c(F)c5)C[C@H]4C)cnn3c(C(F)(F)F)c2C)cc1` [methanone, [5-(4-methoxyphenyl)-6-methyl-7-(trifluoromethyl)pyrazolo[1,5-α]pyrimidin-3-yl][(2R)-2-methyl-4-[(1S)-1-(3,4,5-trifluorophenyl)ethyl]-1-piperazinyl]-], the IC50 in the assay on HIV-1, NL4-3 strain is less than 1000 nM; in assay [1], less than 1000 nM.
As for `COc1ccc(-c2nc3c(C(=O)N4CCN([C@@H](C)c5cccnc5)C[C@H]4C)cnn3c(C(F)(F)F)c2C)cc1` [methanone, [5-(4-methoxyphenyl)-6-methyl-7-(trifluoromethyl)pyrazolo[1,5-α]pyrimidin-3-yl][(2R)-2-methyl-4-[(1S)-1-(3-pyridinyl)ethyl]-1-piperazinyl]-], the IC50 in the assay with HIV-1, NL4-3 strain is less than 1000 nM; in assay [1], less than 1000 nM.
On to `COc1ccc(-c2nc3c(C(=O)N4CCN([C@@H](C)c5ccncc5)C[C@H]4C)cnn3c(C(F)(F)F)c2C)cc1` [methanone, [5-(4-methoxyphenyl)-6-methyl-7-(trifluoromethyl)pyrazolo[1,5-α]pyrimidin-3-yl][(2R)-2-methyl-4-[(1S)-1-(4-pyridinyl)ethyl]-1-piperazinyl]-], for which the IC50 is less than 1000 nM in the assay on HIV-1, NL4-3 strain and less than 1000 nM in assay [1].
Turning to `COc1ccc(-c2nc3c(C(=O)N4CCN([C@@H](C)c5ccc(S(C)(=O)=O)cc5)C[C@H]4C)cnn3c(C(F)(F)F)c2C)cc1` [methanone, [5-(4-methoxyphenyl)-6-methyl-7-(trifluoromethyl)pyrazolo[1,5-α]pyrimidin-3-yl][(2R)-2-methyl-4-[(1S)-1-[4-(methylsulfonyl)phenyl]ethyl]-1-piperazinyl]-], the IC50 lay within 1100 to 10000 nM with HIV-1, NL4-3 strain and 1100 to 10000 nM in assay [1].
As for `COc1ccc(-c2nc3c(C(=O)N4CCN([C@@H](C)c5ccccc5)C[C@H]4C)cnn3c(C(F)(F)F)c2C)cc1` [methanone, [5-(4-methoxyphenyl)-6-methyl-7-(trifluoromethyl)pyrazolo[1,5-α]pyrimidin-3-yl][(2R)-2-methyl-4-[(1S)-1-phenylethyl]-1-piperazinyl]-], the IC50 in the assay with HIV-1, NL4-3 strain was less than 1000 nM; in assay [1] it was less than 1000 nM.
As to `COc1ccc(-c2nc3c(C(=O)N4CCN([C@@H](c5ccccc5)C(F)(F)F)C[C@H]4C)cnn3c(C(F)(F)F)c2C)cc1` [methanone, [5-(4-methoxyphenyl)-6-methyl-7-(trifluoromethyl)pyrazolo[1,5-α]pyrimidin-3-yl][(2R)-2-methyl-4-[(1S)-2,2,2-trifluoro-1-phenylethyl]-1-piperazinyl]-], the IC50 in the assay with HIV-1, NL4-3 strain is less than 1000 nM; in assay [1], less than 1000 nM.
`COc1ccc(-c2nc3c(C(=O)N4CCN([C@@H](CO)c5ccccc5)C[C@H]4C)cnn3c(C(F)(F)F)c2F)cc1` [methanone, [6-fluoro-5-(4-methoxyphenyl)-7-(trifluoromethyl)pyrazolo[1,5-α]pyrimidin-3-yl][(2R)-4-[(1R)-2-hydroxy-1-phenylethyl]-2-methyl-1-piperazinyl]-]: the IC50 in the assay with HIV-1, NL4-3 strain was less than 1000 nM; in assay [1] it was less than 1000 nM.
On to `COc1ccc(-c2nc3c(C(=O)N4CCN([C@@H](CO)c5ccccc5)C[C@H]4C)cnn3c(N(C)C)c2F)cc1` [methanone, [7-(dimethylamino)-6-fluoro-5-(4-methoxyphenyl)pyrazolo[1,5-α]pyrimidin-3-yl][(2R)-4-[(1R)-2-hydroxy-1-phenylethyl]-2-methyl-1-piperazinyl]-], for which the IC50 in the assay with HIV-1, NL4-3 strain was less than 1000 nM; in assay [1] it was less than 1000 nM.
`COc1ccc(-c2nc3c(C(=O)N4CCN(C(CN)c5ccccc5)C[C@H]4C)cnn3c(C(F)(F)F)c2C)cc1` (stereo partly drawn) [methanone, [(2R)-4-(2-amino-1-phenylethyl)-2-methyl-1-piperazinyl][5-(4-methoxyphenyl)-6-methyl-7-(trifluoromethyl)pyrazolo[1,5-α]pyrimidin-3-yl]-]: the IC50 in the assay with HIV-1, NL4-3 strain was less than 1000 nM; in assay [1] it was less than 1000 nM.
As for `COc1ccc(-c2nc3c(C(=O)N4CCN(C(c5ccccc5)C(C)O)C[C@H]4C)cnn3c(C(F)(F)F)c2C)cc1` (stereo partly drawn) [methanone, [(2R)-4-(2-hydroxy-1-phenylpropyl)-2-methyl-1-piperazinyl][5-(4-methoxyphenyl)-6-methyl-7-(trifluoromethyl)pyrazolo[1,5-α]pyrimidin-3-yl]-], the IC50 with HIV-1, NL4-3 strain is less than 1000 nM; in assay [1] it was less than 1000 nM.
In the case of `COc1ccc(-c2nc3c(C(=O)N4CCN(C(c5ccccc5)C(C)(C)O)C[C@H]4C)cnn3c(C(F)(F)F)c2C)cc1` (stereo partly drawn) [methanone, [(2R)-4-(2-hydroxy-2-methyl-1-phenylpropyl)-2-methyl-1-piperazinyl][5-(4-methoxyphenyl)-6-methyl-7-(trifluoromethyl)pyrazolo[1,5-α]pyrimidin-3-yl]-], the IC50 in the assay on HIV-1, NL4-3 strain was less than 1000 nM; in assay [1] it was less than 1000 nM.
As for `COc1ccc(-c2nc3c(C(=O)N4CCN(C(CO)c5cccc6c5OC(F)(F)O6)C[C@H]4C)cnn3c(C(F)(F)F)c2C)cc1` (stereo partly drawn) [methanone, [(2R)-4-[1-(2,2-difluoro-1,3-benzodioxol-4-yl)-2-hydroxyethyl]-2-methyl-1-piperazinyl][5-(4-methoxyphenyl)-6-methyl-7-(trifluoromethyl)pyrazolo[1,5-α]pyrimidin-3-yl]-], the IC50 with HIV-1, NL4-3 strain was less than 1000 nM; in assay [1], less than 1000 nM.
As to `COc1ccc(-c2nc3c(C(=O)N4CCN(C(CO)c5cccc(F)c5F)C[C@H]4C)cnn3c(C(F)(F)F)c2C)cc1` (stereo partly drawn) [methanone, [(2R)-4-[1-(2,3-difluorophenyl)-2-hydroxyethyl]-2-methyl-1-piperazinyl][5-(4-methoxyphenyl)-6-methyl-7-(trifluoromethyl)pyrazolo[1,5-α]pyrimidin-3-yl]-], the IC50 in the assay with HIV-1, NL4-3 strain is less than 1000 nM; in assay [1] it was less than 1000 nM.
`COc1ccc(-c2nc3c(C(=O)N4CCN(C(CO)c5cccc(OC)c5OC)C[C@H]4C)cnn3c(C(F)(F)F)c2C)cc1` (stereo partly drawn) [methanone, [(2R)-4-[1-(2,3-dimethoxyphenyl)-2-hydroxyethyl]-2-methyl-1-piperazinyl][5-(4-methoxyphenyl)-6-methyl-7-(trifluoromethyl)pyrazolo[1,5-α]pyrimidin-3-yl]-]: the IC50 in the assay with HIV-1, NL4-3 strain is less than 1000 nM; in assay [1], less than 1000 nM.
For `COc1ccc(-c2nc3c(C(=O)N4CCN(C(CO)c5ccc(F)cc5F)C[C@H]4C)cnn3c(C(F)(F)F)c2C)cc1` (stereo partly drawn) [methanone, [(2R)-4-[1-(2,4-difluorophenyl)-2-hydroxyethyl]-2-methyl-1-piperazinyl][5-(4-methoxyphenyl)-6-methyl-7-(trifluoromethyl)pyrazolo[1,5-α]pyrimidin-3-yl]-], the IC50 in the assay with HIV-1, NL4-3 strain is less than 1000 nM; in assay [1], less than 1000 nM.
